How the values were obtained:
SW480 cells [1] = test: cDNA microarray analysis (Clontech Atlas Human Cancer 1.2 Array) of SW480 cells; settings: 25 μM; for Ratio, fos-related antigen (FRA1): gene code A13c; for Ratio, epidermal growth factor receptor (EGFR): gene code A12d; for Ratio, placental calcium-binding protein; calvasculin: gene code B07l; for Ratio, proliferating cyclic nuclear antigen (PCNA); cyclin: gene code C13e; for Ratio, growth arrest &DNA-damage-inducible protein 153 (GADD153): gene code C05d; for Ratio, integrin alpha 3 (ITGA3); galactoprotein B3 (GAPB3): gene code D03e; for Ratio, low-affinity nerve growth factor receptor (NGF receptor; NGFR): gene code D03k; for Ratio, histone H4: gene code D08b; for Ratio, nuclear protein: gene code D09b; for Ratio, interleukin-1 beta precursor (IL-1; IL1B); catabolin: gene code E07f; for Ratio, macrophage inhibitory cytokine 1 (MIC1): gene code E09e; for Ratio, neutrophil gelatinase-associated lipocalin precursor (NGAL): gene code F04i; for Ratio, early growth response alpha (EGR alpha): gene code F06n; for Ratio, gravin: gene code F09g; for Ratio, glycyl tRNA synthetase: gene code F13k
HCT116 cells = test: FACS cell cycle analysis (propidium iodide), HCT116 cells; assay type: cell-based, human; settings: 25 μM, 24 hours
Experimental: (§1) FIG. 6. • A. COMPOUND 1 arrests cells in G1. FACS analysis was performed on SW480 (lower panel) and HCT116 (upper panel) cells treated for 24 hours with either COMPOUND 1 (25 μM) (right) or control (0.5% DMSO (left). 5.5×10^6 cells were fixed and stained with propidium iodide (PI). G0/G1, S, and G2/M are indicated by arrows. • B. COMPOUND 1 selectively activates caspases in colon carcinoma cell lines. SW480 and HCT116 (left graph) cells (10^5) along with the normal colonocytes, CCD18Co (right graph) were treated with either control (0.5% DMSO) or COMPOUND 1 (25 μM). 24 hours post treatment, cells were lysed and the caspase-3/7 enzymatic activities were measured. Relative fluorescence units (RFU) were calculated by subtracting the unit values of the blank (control, without cells) from the treated samples (COMPOUND 1 or control) and plotted.
(§2) For FACS analysis, approx. 5×10^6 cells from PNRI-treated or vehicle-treated were fixed with 70% chilled ethanol and stored at −20° C. for at least 30 minutes. […] 10,000 stained cells for each sample were acquired using Beckman Coulter EPICS XL-MCL Flow Cytometry and the percentage of cells in different phase of the cell cycle was determined by Expo32 ADC software (Coulter Corporation, Miami, Fla., 33196). […]

SW480 cells [2] = test: FACS cell cycle analysis (propidium iodide), SW480 cells; assay type: cell-based, human; settings: 25 μM, 24 hours
Experimental: as §1, §2

## O=C1C(Cc2ccc(O)cc2)N2C(=O)CCN(C(=O)NCc3ccccc3)C2CN1Cc1cccc2ccccc12 (stereo not drawn) [COMPOUND 1]
SW480 cells [1]; 8-hour treatment, […]
  Ratio, WSL protein + TRAMP + Apo-3 + death domain receptor 3 (DDR3): 1.84
  Ratio, integrin beta 4 (ITGB4); CD104 antigen: 1.84
SW480 cells [1]; 8-hour treatment, gene code A05i
  Ratio, G2/mitotic-specific cyclin B1 (CCNB1): 0.57
SW480 cells [1]; 8-hour treatment, gene code A10f
  Ratio, matrix metalloproteinase 11 (MMP11); stromelysin 3: 0.77
SW480 cells [1]; 8-hour treatment
  Ratio, fos-related antigen (FRA1): 2.48
  Ratio, epidermal growth factor receptor (EGFR): 4.20
  Ratio, placental calcium-binding protein; calvasculin: 0.85
  Ratio, proliferating cyclic nuclear antigen (PCNA); cyclin: 0.38
  Ratio, growth arrest &DNA-damage-inducible protein 153 (GADD153): 6.92
  Ratio, integrin alpha 3 (ITGA3); galactoprotein B3 (GAPB3): 2.82
  Ratio, low-affinity nerve growth factor receptor (NGF receptor; NGFR): 1.77
  Ratio, histone H4: 0.73
  Ratio, nuclear protein: 2.11
  Ratio, interleukin-1 beta precursor (IL-1; IL1B); catabolin: 1.77
  Ratio, macrophage inhibitory cytokine 1 (MIC1): 6.94
  Ratio, neutrophil gelatinase-associated lipocalin precursor (NGAL): 5.85
  Ratio, early growth response alpha (EGR alpha): 3.15
  Ratio, gravin: 6.40
  Ratio, glycyl tRNA synthetase: 2.23
SW480 cells [1]; 8-hour treatment, gene code A14n
  Ratio, brain glucose transporter 3 (GTR3): 1.94
SW480 cells [1]; 8-hour treatment, gene code A14d
  Ratio, ERBB-3 receptor protein-tyrosine kinase precursor: 1.36
SW480 cells [1]; 8-hour treatment, gene code B01m
  Ratio, linker for activation of T-cells (LAT): 0.74
SW480 cells [1]; 8-hour treatment, gene code B12j
  Ratio, ras-related C3 botulinum toxin substrate 2; p21-rac2: 0.62
SW480 cells [1]; 8-hour treatment, gene code B14n
  Ratio, retinoic acid receptor beta (RXR-beta; RXRB): 0.74
SW480 cells [1]; 8-hour treatment, gene code B08h
  Ratio, PTPCAAX1 nuclear tyrosine phosphatase (PRL-1): 2.56
SW480 cells [1]; 8-hour treatment, gene code C06f
  Ratio, MCM4 DNA replication licensing factor; CDC21 homolog: 0.38
SW480 cells [1]; 8-hour treatment, gene code C09i
  Ratio, growth arrest &DNA-damage-inducible protein (GADD45): 5.36
SW480 cells [1]; 8-hour treatment, gene code D03b
  Ratio, DNA-binding protein CPBP: 1.47
SW480 cells [1]; 8-hour treatment, gene code D08e
  Ratio, integrin alpha 7B precursor (IGA7B): 1.69
SW480 cells [1]; 8-hour treatment, gene code D08f
  Ratio, paxillin: 2.14
SW480 cells [1]; 8-hour treatment, gene code D11c
  Ratio, T-cell surface glycoprotein CD3 epsilon subunit precursor: 0.60
SW480 cells [1]; 8-hour treatment, gene code E01g
  Ratio, interleukin-13 precursor (IL-13); NC30: 0.88
SW480 cells [1]; 8-hour treatment, gene code E03d
  Ratio, nerve growth factor-inducible PC4 homolog: 3.27
SW480 cells [1]; 8-hour treatment, gene code F05e
  Ratio, ornithine decarboxylase: 1.82
SW480 cells [1]; 8-hour treatment, gene code F07e
  Ratio, ribonucleoside-diphosphate reductase M2 subunit: 0.53
SW480 cells [1]; 8-hour treatment, gene code F08f
  Ratio, type I cytoskeletal 18 keratin; cytokeratin 18 (K18): 1.59
SW480 cells [1]; 24-hour treatment, gene code A01c
  Ratio, proto-oncogene c-jun; transcription factor AP-1: 1.34
SW480 cells [1]; 24-hour treatment, gene code A02b
  Ratio, EB1 protein: 0.52
SW480 cells [1]; 24-hour treatment, gene code A03g
  Ratio, c-myc binding protein MM-1: 0.43
SW480 cells [1]; 24-hour treatment, gene code A06i
  Ratio, G1/S-specific cyclin D1 (CCND1); cyclin PRAD1; bcl-1 oncogene: 0.47
SW480 cells [1]; 24-hour treatment, gene code A10k
  Ratio, cyclin-dependent kinase regulatory subunit 1 (CKS1): 0.28
SW480 cells [1]; 24-hour treatment, gene code A11k
  Ratio, cyclin-dependent kinase regulatory subunit (CKS2): 0.40
SW480 cells [1]; 24-hour treatment
  Ratio, fos-related antigen (FRA1): 1.99
  Ratio, epidermal growth factor receptor (EGFR): 2.51
  Ratio, placental calcium-binding protein; calvasculin: 0.50
  Ratio, proliferating cyclic nuclear antigen (PCNA); cyclin: 0.33
  Ratio, growth arrest &DNA-damage-inducible protein 153 (GADD153): 3.66
  Ratio, integrin alpha 3 (ITGA3); galactoprotein B3 (GAPB3): 2.99
  Ratio, low-affinity nerve growth factor receptor (NGF receptor; NGFR): 2.50
  Ratio, histone H4: 0.27
  Ratio, nuclear protein: 0.49
  Ratio, interleukin-1 beta precursor (IL-1; IL1B); catabolin: 1.98
  Ratio, macrophage inhibitory cytokine 1 (MIC1): 2.79
  Ratio, neutrophil gelatinase-associated lipocalin precursor (NGAL): 23.85
  Ratio, early growth response alpha (EGR alpha): 1.79
  Ratio, gravin: 8.46
  Ratio, glycyl tRNA synthetase: 2.02
SW480 cells [1]; 24-hour treatment, gene code B02a
  Ratio, ADP/ATP carrier protein: 0.21
SW480 cells [1]; 24-hour treatment, gene code B03m
  Ratio, 14-3-3 protein sigma; stratifin; epithelial cell marker protein 1: 0.45
SW480 cells [1]; 24-hour treatment, gene code C01j
  Ratio, ets domain protein elk-3; NET; SRF accessory protein 2 (SAP2): 1.71
SW480 cells [1]; 24-hour treatment, gene code C04b
  Ratio, tumor necrosis factor type 1 receptor associated protein (TRAP1): 0.73
SW480 cells [1]; 24-hour treatment, gene code C05f
  Ratio, MCM2 DNA replication licensing factor; nuclear protein BM28: 0.23
SW480 cells [1]; 24-hour treatment, gene code C04h
  Ratio, HHR23A; UV excision repair protein protein RAD23A: 0.36
SW480 cells [1]; 24-hour treatment, gene code D06e
  Ratio, integrin beta 4 (ITGB4); CD104 antigen: 2.68
SW480 cells [1]; 24-hour treatment, gene code D06m
  Ratio, cytosolic superoxide dismutase 1 (SOD1): 0.45
SW480 cells [1]; 24-hour treatment, gene code D07b
  Ratio, high mobility group protein HMG2: 0.35
SW480 cells [1]; 24-hour treatment, gene code D07m
  Ratio, glutathione synthetase (GSH synthetase; GSH-S): 0.34
SW480 cells [1]; 24-hour treatment, gene code D12a
  Ratio, chromatin assembly factor 1 p48 subunit (CAF1 p48 subunit): 0.70
SW480 cells [1]; 24-hour treatment, gene code D08h
  Ratio, N-sam; fibroblast growth factor receptor1 precursor (FGFR1): 10.39
SW480 cells [1]; 24-hour treatment, gene code E02m
  Ratio, MHC class I truncated HLA G lymphocyte antigen: 1.36
SW480 cells [1]; 24-hour treatment, gene code E02n
  Ratio, 78-kDa glucose regulated protein precursor (GRP 78): 2.35
SW480 cells [1]; 24-hour treatment, gene code E04i
  Ratio, PDGF associated protein: 0.45
SW480 cells [1]; 24-hour treatment, gene code E11l
  Ratio, CD59 glycoprotein precursor: 0.66
SW480 cells [1]; 24-hour treatment, gene code F03e
  Ratio, fatty acid synthase: 0.34
SW480 cells [1]; 24-hour treatment, gene code F04g
  Ratio, vimentin (VIM): 1.34
SW480 cells [1]; 24-hour treatment, gene code F10c
  Ratio, inosine-5′-monophosphate dehydrogenase 2: 0.68
SW480 cells [1]; 24-hour treatment, gene code F12l
  Ratio, BENE: 2.07
SW480 cells [1]; 24-hour treatment, gene code F13j
  Ratio, elongation factor 2 (EF2): 0.55
SW480 cells [1]; 24-hour treatment, gene code F09h
  Ratio, TRAM protein: 3.25
SW480 cells [1]; 24-hour treatment, gene code F06d
  Ratio, L-lactate dehydrogenase H subunit (LDHB): 0.40
SW480 cells [1]; 24-hour treatment, gene code G29
  Ratio, brain-specific tubulin alpha 1 subunit (TUBA1): 0.72
SW480 cells [1]; 24-hour treatment, gene code G31
  Ratio, HLA class I histocompatibility antigen C-4 alpha subunit (HLAC): 1.29
SW480 cells [1]; 24-hour treatment, gene code G45
  Ratio, 23-kDa highly basic protein; 60S ribosomal protein L13A: 0.65
SW480 cells [1]; 8 hours
  Genes analyzed down-regulated by greater than 50%: ~0.3%
  Genes analyzed upregulated more than 2-fold: ~2%
HCT116 cells
  Cell cycle distribution (DNA content by FACS): increased accumulation at G1/S-phase
SW480 cells [2]
  Cell cycle distribution (DNA content by FACS): increased accumulation at G1/S-phase

Source: patent US7531320B2, “Modulation of β-catenin/TCF-activated transcription” (priority 2003, dated 2009)
